Assay results taken from patent publication US12729377B2, “RNAi agents and compositions for inhibiting expression of angiopoietin-like 3 (ANGPTL3), and methods of use” (Arrowhead Pharmaceuticals, Inc., priority 2017, dated 2026).
In the oligonucleotide strings, read from the 5' end, every base follows the letter of its sugar. An asterisk marks phosphorothioate; unmarked linkages are phosphodiester. Other units and linkages are bracketed, terminal groups are in braces. A string of capitals states the bases alone. {NAG37} = tridentate N-acetyl-galactosamine targeting ligand, structure (NAG37)s; [invAb] = inverted abasic unit; m = 2'-O-methyl; f = 2'-fluoro

Columns and labels:
ANGPTL3 gene [1] = assay: Example 6: serum HDL in mice; format: in vivo, C57bl/6 mice
Method: (§1) To assess the in vivo activity of additional ANGPTL3 RNAi agents that are designed to target position 304 on the ANGPTL3 gene, six- to eight-week-old female C57bl/6 mice were used. Pre-dose serum samples were taken at day −1 after a four hour fast. At day 1, each mouse was given a single subcutaneous administration of 200 μl containing 0.5 mg/kg (mpk) of an ANGPTL3 RNAi agent in D5W (dextrose in 5% water), or control (D5W) with no RNAi agent, according to the dosing groups recited in Table 25.
(§2) Each of the RNAi agents included a modified sequence and an N-acetyl-galactosamine-containing targeting ligand conjugated to the 5′ terminal end of the sense strand. (See Tables 3, 4, and 5 for modified sequences and targeting ligand structures). The injections were performed between the skin and muscle (i.e. subcutaneous injections) into the loose skin over the neck and shoulder area. Three (3) mice in each group were tested (n=3). Serum was collected on days 8, 15, 22, 30, and on day 43 for certain groups (i.e., Groups 1, 2, 5, and 10 only). Mice were fasted for four hours prior to each collection. ANGPTL3 protein levels in serum were measured by ELISA assay (R&D Systems), according to the manufacturer's recommendations. Triglycerides, total cholesterol, high-density lipoprotein (HDL), and low-density lipoprotein (LDL) in serum were measured on a Cobas® Integra 400 (Roche Diagnostics), according to the manufacturer's recommendations.
(§3) The ANGPTL3 protein levels, triglyceride levels, total cholesterol levels, HDL levels, and LDL levels for each animal were normalized. For normalization, the level of ANGPTL3 protein, triglyceride, HDL, and total cholesterol, respectively, for each animal at a time point, was divided by the pre-treatment level of expression in that animal (in this case at day −1) to determine the ratio of expression “normalized to pre-treatment.” Expression at a specific time point was then normalized to the D5W control group by dividing the “normalized to pre-treatment” ratio for an individual animal by the mean “normalized to pretreatment” ratio of all mice in the D5W control group.

ANGPTL3 gene [2] = assay: Example 6: serum LDL in mice; format: in vivo, C57bl/6 mice
Method: as §1, §2, §3

ANGPTL3 protein = assay: Example 10: serum ANGPTL3 protein by ELISA in mice; format: in vivo; settings: 0.5 mg/kg single SC injection day 1, female C57bl/6 mice, n=3, ratio to D5W control
Method: To assess the in vivo activity of further ANGPTL3 RNAi agents that are designed to target position 304 on the ANGPTL3 gene, six- to eight-week-old female C57bl/6 mice were used. Pre-dose serum samples were taken at day −1 after a four hour fast. At day 1, each mouse was given a single subcutaneous administration of 200 μl containing 0.5 mg/kg (mpk) of an ANGPTL3 RNAi agent in D5W (dextrose in 5% water), or control (D5W) with no RNAi agent, according to the dosing groups recited in Table 47.
Each of the RNAi agents included a modified sequence and an N-acetyl-galactosamine-containing targeting ligand conjugated to the 5′ terminal end of the sense strand. (See Tables 3, 4, and 5 for modified sequences and targeting ligand structures). As noted above, each of the ANGPTL3 RNAi agents dosed in this study included nucleotide sequences designed to target the ANGPTL3 gene at position 304. The injections were performed between the skin and muscle (i.e. subcutaneous injections) into the loose skin over the neck and shoulder area. Three (3) mice in each group were tested (n=3). Serum was collected on days 8, 15, 22, 29, and for some groups on day 36 (i.e., Groups 1, 2, and 9-13 only). Mice were fasted for four hours prior to each collection. ANGPTL3 protein levels in serum were measured by ELISA assay (R&D Systems), according to the manufacturer's recommendations. Triglycerides, total cholesterol, high-density lipoprotein (HDL), and low-density lipoprotein (LDL) in serum were measured on a Cobas® Integra 400 (Roche Diagnostics), according to the manufacturer's recommendations.
as §3

ANGPTL3 gene [3] = assay: Example 11: dose response, serum HDL in mice; format: in vivo, C57bl/6 mice
Method: To assess the dose response of ANGPTL3 RNAi agent AD05488, six- to eight-week-old female C57bl/6 mice were used. Pre-dose serum samples were taken at day −1 after a four hour fast. At day 1, each mouse was given a single subcutaneous administration of 200 μl containing the respective mg/kg dose of an ANGPTL3 RNAi agent in D5W (dextrose in 5% water), or control (D5W) with no RNAi agent, according to the dosing groups recited in Table 53:
as §2, with “The” for “Each of the”, “agent tested (AD05488)” for “agents”, “Four (4)” for “Three (3)”, “(n=4).” for “(n=3).”, “22,” for “22, 30,”, “29.” for “on day 43 for certain groups (i.e., Groups 1, 2, 5, and 10 only).”
as §3

[4] = Day 8, 0.5 mg/kg single SC injection on day 1, n=3
[5] = Day 15, 0.5 mg/kg single SC injection on day 1, n=3
[6] = Day 22, 0.5 mg/kg single SC injection on day 1, n=3
[7] = Day 30, 0.5 mg/kg single SC injection on day 1, n=3
[8] = Day 43, 0.5 mg/kg single SC injection on day 1, n=3

Substance: AD05488: RNAi agent duplex: antisense AM07235-AS, sense AM07234-SS (antisense mU*fA*mC*fUmGfAmUfCmAfAmAfUmAfUmGfUmUfGmAfG*mC; sense {NAG37}*[invAb]*mGmCmUmCmAmAmCmAfUfAfUmUmUmGmAmUmCmAmGmUmA*[invAb])
- Avg HDL, normalized to pre-treatment and control (ANGPTL3 gene [1]; [4]): 0.783
- Avg HDL, normalized to pre-treatment and control (ANGPTL3 gene [1]; [5]): 0.763
- Avg HDL, normalized to pre-treatment and control (ANGPTL3 gene [1]; [6]): 0.793
- Avg HDL, normalized to pre-treatment and control (ANGPTL3 gene [1]; [7]): 0.956
- Avg HDL, normalized to pre-treatment and control (ANGPTL3 gene [1]; [8]): 1.088
- Avg LDL, normalized to pre-treatment and control (ANGPTL3 gene [2]; [4]): 0.805
- Avg LDL, normalized to pre-treatment and control (ANGPTL3 gene [2]; [5]): 0.880
- Avg LDL, normalized to pre-treatment and control (ANGPTL3 gene [2]; [6]): 0.991
- Avg LDL, normalized to pre-treatment and control (ANGPTL3 gene [2]; [7]): 1.093
- Avg LDL, normalized to pre-treatment and control (ANGPTL3 gene [2]; [8]): 0.970
- Average ANGPTL3 Protein Normalized to Pre-Treatment and Control (ANGPTL3 protein; Day 8): 0.179
- Average ANGPTL3 Protein Normalized to Pre-Treatment and Control (ANGPTL3 protein; Day 15): 0.197
- Average ANGPTL3 Protein Normalized to Pre-Treatment and Control (ANGPTL3 protein; Day 22): 0.196
- Average ANGPTL3 Protein Normalized to Pre-Treatment and Control (ANGPTL3 protein; Day 29): 0.258
- Average ANGPTL3 Protein Normalized to Pre-Treatment and Control (ANGPTL3 protein; Day 36): 0.297
- Avg HDL Normalized to Pre-Treatment and Control (ANGPTL3 gene [3]; 0.05 mg/kg single sc day 1, Day 8): 0.851
- Avg HDL Normalized to Pre-Treatment and Control (ANGPTL3 gene [3]; 0.05 mg/kg single sc day 1, Day 15): 1.052
- Avg HDL Normalized to Pre-Treatment and Control (ANGPTL3 gene [3]; 0.05 mg/kg single sc day 1, Day 22): 0.982
- Avg HDL Normalized to Pre-Treatment and Control (ANGPTL3 gene [3]; 0.05 mg/kg single sc day 1, Day 29): 0.894
- Avg HDL Normalized to Pre-Treatment and Control (ANGPTL3 gene [3]; 0.1 mg/kg single sc day 1, Day 8): 0.807
- Avg HDL Normalized to Pre-Treatment and Control (ANGPTL3 gene [3]; 0.1 mg/kg single sc day 1, Day 15): 0.950
- Avg HDL Normalized to Pre-Treatment and Control (ANGPTL3 gene [3]; 0.1 mg/kg single sc day 1, Day 22): 0.806
- Avg HDL Normalized to Pre-Treatment and Control (ANGPTL3 gene [3]; 0.1 mg/kg single sc day 1, Day 29): 0.910
- Avg HDL Normalized to Pre-Treatment and Control (ANGPTL3 gene [3]; 0.5 mg/kg single sc day 1, Day 8): 0.727
- Avg HDL Normalized to Pre-Treatment and Control (ANGPTL3 gene [3]; 0.5 mg/kg single sc day 1, Day 15): 0.876
- Avg HDL Normalized to Pre-Treatment and Control (ANGPTL3 gene [3]; 0.5 mg/kg single sc day 1, Day 22): 0.906
- Avg HDL Normalized to Pre-Treatment and Control (ANGPTL3 gene [3]; 0.5 mg/kg single sc day 1, Day 29): 0.897
- Avg HDL Normalized to Pre-Treatment and Control (ANGPTL3 gene [3]; 1.0 mg/kg single sc day 1, Day 8): 0.575
- Avg HDL Normalized to Pre-Treatment and Control (ANGPTL3 gene [3]; 1.0 mg/kg single sc day 1, Day 15): 0.785
- Avg HDL Normalized to Pre-Treatment and Control (ANGPTL3 gene [3]; 1.0 mg/kg single sc day 1, Day 22): 0.839
- Avg HDL Normalized to Pre-Treatment and Control (ANGPTL3 gene [3]; 1.0 mg/kg single sc day 1, Day 29): 0.888
- Avg HDL Normalized to Pre-Treatment and Control (ANGPTL3 gene [3]; 2.5 mg/kg single sc day 1, Day 8): 0.618
- Avg HDL Normalized to Pre-Treatment and Control (ANGPTL3 gene [3]; 2.5 mg/kg single sc day 1, Day 15): 0.787
- Avg HDL Normalized to Pre-Treatment and Control (ANGPTL3 gene [3]; 2.5 mg/kg single sc day 1, Day 22): 0.782
- Avg HDL Normalized to Pre-Treatment and Control (ANGPTL3 gene [3]; 2.5 mg/kg single sc day 1, Day 29): 0.701
- Avg HDL Normalized to Pre-Treatment and Control (ANGPTL3 gene [3]; 5.0 mg/kg single sc day 1, Day 8): 0.534
- Avg HDL Normalized to Pre-Treatment and Control (ANGPTL3 gene [3]; 5.0 mg/kg single sc day 1, Day 15): 0.717
- Avg HDL Normalized to Pre-Treatment and Control (ANGPTL3 gene [3]; 5.0 mg/kg single sc day 1, Day 22): 0.760
- Avg HDL Normalized to Pre-Treatment and Control (ANGPTL3 gene [3]; 5.0 mg/kg single sc day 1, Day 29): 0.759
